Consider nine compounds from US8071606B2, “Substituted pyrazinone amides useful for activation of glucokinase” (Pfizer Inc., priority 2009, dated 2011).

Test [1] addresses T1, recombinant human glucokinase (beta cell isoform, His-tagged) (Homo sapiens, UniProt P35557).
T1 construct: Full-length glucokinase (beta cell isoform) was His-tagged at the N-terminus; His tag (N); made in house; host or cells: E. coli BL21(DE3), pBCGK vector
T1 sequence (P35557 1-465): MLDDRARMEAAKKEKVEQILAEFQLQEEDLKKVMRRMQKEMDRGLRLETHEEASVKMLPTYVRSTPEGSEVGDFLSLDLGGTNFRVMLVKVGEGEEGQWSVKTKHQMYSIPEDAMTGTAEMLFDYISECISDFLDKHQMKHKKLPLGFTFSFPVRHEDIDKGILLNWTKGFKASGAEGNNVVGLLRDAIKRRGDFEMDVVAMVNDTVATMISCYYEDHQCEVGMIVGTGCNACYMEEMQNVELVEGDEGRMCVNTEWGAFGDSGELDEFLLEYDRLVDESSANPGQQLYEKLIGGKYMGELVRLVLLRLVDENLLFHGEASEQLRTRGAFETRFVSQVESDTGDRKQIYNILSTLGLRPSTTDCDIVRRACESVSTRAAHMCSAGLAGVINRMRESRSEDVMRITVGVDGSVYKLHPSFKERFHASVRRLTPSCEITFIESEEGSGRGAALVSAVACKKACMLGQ
Description: Assay 1: activator potency and maximum activation at 5 mM glucose (coupled PK/LDH, NADH depletion, A340). Type of test: biochemical. The settings on record: for Emax: % Maximum Activation=(Va/Vo−1)×100; for EC50: glucokinase activation, pH 7.1, room temperature. The method, then: (§1) Representative compounds of this invention were evaluated in biochemical assays (Assay 1 or Assay 2) to characterize their glucokinase activation properties. The recombinant human glucokinase protein utilized in both assays was prepared and purified as described below. • Beta Cell Glucokinase His-Tag Growth and Induction Conditions: BL21(DE3) cells (Invitrogen Corporation, Carlsbad, Calif.) containing pBCGK (C or N His) vector were grown at 37° C. (in 2XYT) until the OD600 was between 0.6-1.0. Expression was induced by addition of isopropylthiogalactoside to a final concentration of 0.1-0.2 mM to the cells which were then incubated overnight at 23° C. The next day, cells were harvested via centrifugation at 5000 rpm for 15 minutes at 4° C. The cell pellet was stored at −80° C. for future purification. • Beta Cell Glucokinase His-Tag Purification Conditions: A Ni-NTA (Quigan, Germantown, Md.) column (15-50 mL) was used for separation. Two buffers were prepared, 1) a lysis/nickel equilibration and wash buffer and 2) a nickel elution buffer. The lysis/equilibration/wash buffer was prepared as such: 25 mM HEPES buffer at pH 7.5, 250 mM NaCl, 20 mM imidazole, and 14 mM […] as final concentrations. The elution buffer was prepared as such: 25 mM HEPES at pH 7.5, 250 mM NaCl, 400 mM imidazole, and 14 mM β-mercaptoethanol as final concentrations. The buffers were each filtered with a 0.22 μm filter prior to use. The cell pellet (1 L culture) was resuspended in 300 mL of the lysis/equilibration buffer. The cells were then lysed (3 times) with a Microfluidics Model 110Y microfluidizer (Microfluidics Corporation, Newton, Mass.). The slurry was centrifuged with a Beckman Coulter Model LE-80K ultracentrifuge (Beckman Coulter, Fullerton, Calif.) at 40,000 rpm for 45 minutes at 4° C. The supernatant was transferred to a chilled flask. A volume of 20 μl was saved for gel analysis. A Pharmacia AKTA (GMI, Inc., Ramsey, Minn.) purification system was used for separation. The prime lines were purged with lysis/equilibration buffer. The Ni-NTA column was equilibrated with 200 mL of the lysis/equilibration buffer at a flow rate of 5 mL/minute. The supernantant was loaded over the column at 4 mL/minute and the flow-through was collected in a flask. The unbound proteins were washed with lysis/equilibration buffer at a flow rate of 5 mL/minute until the ultraviolet reaches baseline. The protein was then eluted from the column with the imidazole elution buffer via imidazole gradient 20 mM to 400 mM over 320 mL. The column was then stripped of any additional protein with 80 mL of the elution buffer. The elution fractions were each 8 mL, for a total yield of 50 samples. Fractions were analyzed by sodium dodecyl sulfate polyacrylamide (SDS-PAGE) and the fractions containing protein of interest were pooled and concentrated to 10 mL using ultrafiltration cell with a 10,000 molecular weight cut-off (MWCO) Millipore membrane (Sigma-Aldrich, St. Louis, Mo.) under nitrogen gas (60 psi). Protein was further purified by size exclusion chromatography (SEC) using a […] (320 mL) (Amersham Pharmacia, Uppsala, Sweden). SEC was equilibrated with 450 mL sizing buffer containing 25 mM HEPES pH 7.0, 50 mM NaCl, and 5 mM dithiothreitol. Concentrated protein was then loaded over SEC and elution with 400 mL sizing buffer was performed overnight at 0.5 mL/minute. The elution fractions were 5 mL each. The fractions were analyzed by SDS-PAGE and protein containing fractions were pooled. Concentration was measured using Bradford Assay/BSA Standard. Purified protein was stored in small aliquots at −80° C. Assay 1: Evaluating Activator Potency and Maximum Activation at 5 mM Glucose
Full-length glucokinase (beta cell isoform) was His-tagged at the N-terminus and purified by a Ni column followed by size exclusion chromatography as described above. […]

Test [2] concerns the target T2, recombinant human glucokinase (Homo sapiens, UniProt P35557).
T2 construct: His tag; made in house; host or cells: E. coli BL21(DE3), pBCGK vector
T2 sequence (P35557 1-465): T1 sequence (P35557 1-465)
The experiment in a line: Assay 2: activator potency in a matrix assay at multiple glucose concentrations (22 compound x 16 glucose concentrations). Type of test: biochemical. The settings on record: concentration of compound affording a 50% reduction in the enzyme's Km for glucose, read-out: Intrinsic EC50. The method, then:
as §1, with “Concentrated protein was then loaded over SEC and elution with 400 mL sizing buffer was performed overnight at 0.5 mL/minute. The elution fractions were 5 mL each.” left out, “Purified protein was stored in small aliquots at −80° C. Assay 1: Evaluating Activator Potency and Maximum Activation at 5 mM Glucose” left out

For orientation: Emax means the maximal effect, on the per cent scale that the assay sets. By EC50 is commonly meant the concentration that produces a half-maximal response. As to `Cc1ccc(NC(=O)[C@H](CC2CCCC2)n2cc(C(F)(F)F)ncc2=O)nc1` [Example 4, (S)-3-cyclopentyl-N-(5-methylpyridin-2-yl)-2-(2-oxo-5-(trifluoromethyl)pyrazin-1(2H)-yl)propanamide], in test [1], the Emax fell in the range of 99 to 100% and the EC50 fell in the range of 0.27 to 0.37 µM.
Take `O=C(O)c1ccc(NC(=O)[C@H](CC2CCCCC2)n2cc(C(F)(F)F)ncc2=O)nc1` [Example 5, (S)-6-(3-cyclohexyl-2-(2-oxo-5-(trifluoromethyl)pyrazin-1(2H)-yl)propanamido)nicotinic acid]: the EC50 in test [2] is 220 to 310 nM.
Still for that read-out and setting: the same measure for `O=C(O)c1ccc(NC(=O)[C@H](CC2CCOCC2)n2cc(C(F)(F)F)ncc2=O)nc1` [Example 6, (S)-6-(2-(2-oxo-5-(trifluoromethyl)pyrazin-1(2H)-yl)-3-(tetrahydro-2H-pyran-4-yl)propanamido)nicotinic acid]: 8900 nM.
Regarding `O=C(Nc1cnccn1)[C@H](CC1CCCC1)n1cc(C(F)(F)F)ncc1=O` [Example 3, (S)-3-cyclopentyl-2-(2-oxo-5-(trifluoromethyl)pyrazin-1(2H)-yl)-N-(pyrazin-2-yl)propanamide], in test [1], the Emax fell in the range of 139 to 143% and the EC50 fell in the range of 5.6 to 7.1 µM.
As to `CC(C)C[C@@H](C(=O)Nc1ccc(C(=O)O)cn1)n1cc(C(F)(F)F)ncc1=O` [Example 7, (S)-6-(4-methyl-2-(2-oxo-5-(trifluoromethyl)pyrazin-1(2H)-yl)pentanamido)nicotinic acid], the EC50 in test [2] turned out to be 3300 nM.
On to `O=C(O)c1ccc(NC(=O)[C@H](CC2CCCC2)n2cc(C(F)(F)F)ncc2=O)nc1` [Example 2, (S)-6-(3-cyclopentyl-2-(2-oxo-5-(trifluoromethyl)pyrazin-1(2H)-yl)propanamido)nicotinic acid], for which, in test [1], the Emax is 117% and the EC50 is 0.453 µM.
The matching figures for `Cc1ccc(NC(=O)[C@H](CC2CCOCC2)n2cc(C(F)(F)F)ncc2=O)nc1` [Example 1, (S)-N-(5-methylpyridin-2-yl)-2-(2-oxo-5-(trifluoromethyl)pyrazin-1(2H)-yl)-3-(tetrahydro-2H-pyran-4-yl)propanamide]: 100% and 64 µM.
Regarding `O=C(O)c1ccc(NC(=O)[C@H](CC2CCC2)n2cc(C(F)(F)F)ncc2=O)nc1` [Example 9, (S)-6-(3-cyclobutyl-2-(2-oxo-5-(trifluoromethyl)pyrazin-1(2H)-yl)propanamido)nicotinic acid], the EC50 in test [2] is 1250 nM.
For the compound `O=C(O)Cc1ccc(NC(=O)[C@H](CC2CCCC2)n2cc(C(F)(F)F)ncc2=O)nc1` [Example 8, (S)-2-(6-(3-cyclopentyl-2-(2-oxo-5-(trifluoromethyl)pyrazin-1(2H)-yl)propanamido)pyridin-3-yl)acetic acid], the EC50 in test [2] is 2300 nM.
